Here are results for 10 molecules from patent publication US12492188B2, “1H-benzo[D]imidazole derivatives as TLR9 inhibitors for the treatment of fibrosis” (BRISTOL-MYERS SQUIBB COMPANY, priority 2020, dated 2025).

Like-named read-outs stand apart in the source and are kept apart here.

Common to all, as to format: cell-based
One assay concerns the target T1, human TLR8 (Homo sapiens, UniProt Q9NR97).
T1 construct: host or cells: HEK-Blue cells (HEK293-derived reporter line)
T1 sequence (Q9NR97 27-1041): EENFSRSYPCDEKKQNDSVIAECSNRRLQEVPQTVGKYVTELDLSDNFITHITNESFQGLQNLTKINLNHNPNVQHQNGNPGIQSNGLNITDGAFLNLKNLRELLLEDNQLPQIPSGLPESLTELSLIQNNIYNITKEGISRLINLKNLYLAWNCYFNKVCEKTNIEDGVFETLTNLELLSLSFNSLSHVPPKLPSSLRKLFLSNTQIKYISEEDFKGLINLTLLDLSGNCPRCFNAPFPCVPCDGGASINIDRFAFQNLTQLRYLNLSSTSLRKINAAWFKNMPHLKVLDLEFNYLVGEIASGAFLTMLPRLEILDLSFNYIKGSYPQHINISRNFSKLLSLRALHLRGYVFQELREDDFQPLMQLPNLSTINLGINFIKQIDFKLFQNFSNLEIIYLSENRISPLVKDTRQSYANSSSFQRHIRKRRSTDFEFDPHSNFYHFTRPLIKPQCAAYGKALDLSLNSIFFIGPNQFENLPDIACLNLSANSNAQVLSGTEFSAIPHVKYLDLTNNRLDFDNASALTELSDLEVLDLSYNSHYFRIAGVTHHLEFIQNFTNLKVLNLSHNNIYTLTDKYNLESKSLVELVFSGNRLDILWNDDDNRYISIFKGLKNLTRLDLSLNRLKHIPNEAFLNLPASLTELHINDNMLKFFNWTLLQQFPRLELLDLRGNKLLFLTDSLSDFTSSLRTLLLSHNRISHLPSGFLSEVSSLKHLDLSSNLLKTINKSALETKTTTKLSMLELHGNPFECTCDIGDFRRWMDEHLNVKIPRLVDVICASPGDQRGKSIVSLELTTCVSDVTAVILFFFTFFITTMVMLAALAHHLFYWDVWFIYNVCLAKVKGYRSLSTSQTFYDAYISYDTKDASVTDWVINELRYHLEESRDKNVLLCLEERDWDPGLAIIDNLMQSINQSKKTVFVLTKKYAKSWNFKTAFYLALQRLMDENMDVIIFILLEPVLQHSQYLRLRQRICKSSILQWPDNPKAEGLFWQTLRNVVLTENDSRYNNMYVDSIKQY
Kind of assay: TLR8 inhibition reporter assay (HEK-Blue cells, secreted embryonic alkaline phosphatase reporter). To be noted: HEK-Blue cells overexpressing human TLR8, stimulated with R848 15.9 μM; read-out: TLR 8 IC50. The method, boiled down:
(§1)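 Agonist-driven SEAP output was measured in HEK-Blue reporter cells carrying human TLR7 (gardiquimod 7.5 μM), TLR8 (R848 15.9 μM) or TLR9 (ODN2006 5 nM). Compounds at 0.05 nM–50 μM final were added 30 min before stimulation at room temperature. After 22 h at 37 °C, percent inhibition was taken against agonist/DMSO wells and a reference inhibitor.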
In general terms: Reporter assays use an easily measured gene product as a stand-in for the process of interest.

A further assay has as its target T2, human TLR7 (Homo sapiens, UniProt Q9NYK1).
T2 construct: host or cells: HEK-Blue cells (HEK293-derived reporter line)
T2 sequence (Q9NYK1 27-1049): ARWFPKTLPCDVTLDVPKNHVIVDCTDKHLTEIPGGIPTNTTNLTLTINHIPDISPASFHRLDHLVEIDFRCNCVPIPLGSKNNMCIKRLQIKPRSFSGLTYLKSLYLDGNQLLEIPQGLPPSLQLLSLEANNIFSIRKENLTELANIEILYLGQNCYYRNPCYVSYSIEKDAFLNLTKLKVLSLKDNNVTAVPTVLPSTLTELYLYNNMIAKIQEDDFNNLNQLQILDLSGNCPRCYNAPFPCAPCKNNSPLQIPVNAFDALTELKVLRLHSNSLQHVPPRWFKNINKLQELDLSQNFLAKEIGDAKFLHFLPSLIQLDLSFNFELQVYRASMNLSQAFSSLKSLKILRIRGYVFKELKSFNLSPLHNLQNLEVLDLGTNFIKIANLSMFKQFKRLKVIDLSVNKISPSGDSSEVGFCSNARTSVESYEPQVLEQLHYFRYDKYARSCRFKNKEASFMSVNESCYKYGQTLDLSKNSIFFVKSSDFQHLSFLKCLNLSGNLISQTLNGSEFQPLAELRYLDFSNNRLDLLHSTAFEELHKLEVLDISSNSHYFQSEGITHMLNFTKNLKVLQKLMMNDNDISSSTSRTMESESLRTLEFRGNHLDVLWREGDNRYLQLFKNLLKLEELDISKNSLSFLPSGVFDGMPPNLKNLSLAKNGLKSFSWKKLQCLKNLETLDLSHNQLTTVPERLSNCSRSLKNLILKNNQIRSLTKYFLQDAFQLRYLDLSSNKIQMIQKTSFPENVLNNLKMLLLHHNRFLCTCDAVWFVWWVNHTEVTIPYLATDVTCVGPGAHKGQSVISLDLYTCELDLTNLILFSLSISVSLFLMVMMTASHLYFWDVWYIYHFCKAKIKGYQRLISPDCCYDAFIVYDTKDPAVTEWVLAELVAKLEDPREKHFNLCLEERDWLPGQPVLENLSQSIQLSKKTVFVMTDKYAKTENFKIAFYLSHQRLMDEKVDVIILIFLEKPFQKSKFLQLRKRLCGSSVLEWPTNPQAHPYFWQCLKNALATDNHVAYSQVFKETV
In words: TLR7 inhibition reporter assay (HEK-Blue cells, secreted embryonic alkaline phosphatase reporter). As to conditions: HEK-Blue cells overexpressing human TLR7, stimulated with gardiquimod 7.5 μM; read-out: TLR 7 IC50. A digest of the protocol: as §1

Another assay addresses T3, human TLR9 (Homo sapiens, UniProt Q9NR96).
T3 construct: host or cells: HEK-Blue cells (HEK293-derived reporter line)
T3 sequence (Q9NR96 26-1032): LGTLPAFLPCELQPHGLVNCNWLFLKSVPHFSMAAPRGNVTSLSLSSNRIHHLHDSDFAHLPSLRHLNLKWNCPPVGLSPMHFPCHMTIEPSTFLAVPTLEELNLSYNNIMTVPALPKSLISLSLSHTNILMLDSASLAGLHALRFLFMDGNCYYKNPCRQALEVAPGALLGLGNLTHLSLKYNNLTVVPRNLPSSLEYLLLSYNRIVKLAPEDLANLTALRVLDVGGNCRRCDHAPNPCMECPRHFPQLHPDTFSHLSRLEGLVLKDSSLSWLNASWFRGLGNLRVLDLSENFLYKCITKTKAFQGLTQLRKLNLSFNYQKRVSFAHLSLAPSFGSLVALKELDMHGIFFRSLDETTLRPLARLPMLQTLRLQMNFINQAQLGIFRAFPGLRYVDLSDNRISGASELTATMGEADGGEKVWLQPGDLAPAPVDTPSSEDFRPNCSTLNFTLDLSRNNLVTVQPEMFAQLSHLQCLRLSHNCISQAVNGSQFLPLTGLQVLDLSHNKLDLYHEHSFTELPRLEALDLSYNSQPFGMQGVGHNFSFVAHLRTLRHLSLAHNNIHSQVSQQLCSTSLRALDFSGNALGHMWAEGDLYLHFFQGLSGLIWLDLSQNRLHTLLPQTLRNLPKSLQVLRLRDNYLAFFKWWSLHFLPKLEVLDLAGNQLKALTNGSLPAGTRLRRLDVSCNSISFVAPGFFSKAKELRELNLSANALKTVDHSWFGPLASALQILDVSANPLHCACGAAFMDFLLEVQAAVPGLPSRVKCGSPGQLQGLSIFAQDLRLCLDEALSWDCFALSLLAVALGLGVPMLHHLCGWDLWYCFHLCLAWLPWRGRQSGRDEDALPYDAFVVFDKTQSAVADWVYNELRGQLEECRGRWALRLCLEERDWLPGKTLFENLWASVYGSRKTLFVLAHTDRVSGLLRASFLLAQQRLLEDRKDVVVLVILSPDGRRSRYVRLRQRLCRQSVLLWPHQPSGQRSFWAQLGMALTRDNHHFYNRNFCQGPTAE
Kind of assay: TLR9 inhibition reporter assay (HEK-Blue cells, secreted embryonic alkaline phosphatase reporter). A digest of the protocol:
as §1

The mark [1] stands for this setting: HEK-Blue cells overexpressing human TLR9, stimulated with ODN2006 5 nM, read-out: TLR 9 IC50.
The mark [2] stands for this setting: HEK-Blue human TLR9 reporter cells.

For orientation: IC50 means the point on the concentration scale where inhibition reaches its midpoint. Turning to `Cn1c(-c2ccc(S(C)(=O)=O)cc2)nc2ccc(C3CCN(C4CC5CCC(C4)N5C4CCOCC4)CC3)c(F)c21` (stereo not shown) [Example 274, 7-fluoro-1-methyl-2-(4-(methylsulfonyl)phenyl)-6-(1-(8-(tetrahydro-2H-pyran-4-yl)-8-azabicyclo[3.2.1]octan-3-yl)piperidin-4-yl)-1H-benzo[d]imidazole], the concentration for half-maximal inhibition (IC50) at human TLR8 is over 50 µM; on human TLR7, 26.1 µM; at human TLR9, 51 nM; on human TLR9 (setting [1]) it was 51 nM.
For `Cn1c(-c2ccc(S(C)(=O)=O)cc2)nc2ccc(C3CCN(C4CC5CCC(C4)N5C4CCOCC4)CC3)c(F)c21` (stereo not shown) [Example 275, 7-fluoro-1-methyl-2-(4-(methylsulfonyl)phenyl)-6-(1-(8-(tetrahydro-2H-pyran-4-yl)-8-azabicyclo[3.2.1]octan-3-yl)piperidin-4-yl)-1H-benzo[d]imidazole], the IC50 on human TLR8 was over 50 µM; on human TLR7, over 50 µM; on human TLR9, 89 nM; on human TLR9 (setting [1]), 89 nM.
On to `CC(C)CN1CCC(N2CCC(c3cc(F)c4nc(-c5ccc(S(C)(=O)=O)cc5)n(C)c4c3)CC2)CC1` [Example 278, 4-fluoro-6-(1′-isobutyl-[1,4′-bipiperidin]-4-yl)-1-methyl-2-(4-(methylsulfonyl)phenyl)-1H-benzo[d]imidazole], for which the IC50 at human TLR8 is over 50 µM; on human TLR7 it was 9 µM; against human TLR9, 58 nM; at human TLR9 (setting [1]), 58 nM.
With `Cn1c(-c2ccc(S(C)(=O)=O)cc2)nc2c(F)cc(C3CCN(C4CCN(C5COC5)CC4)CC3)cc21` [Example 279, 4-fluoro-1-methyl-2-(4-(methylsulfonyl)phenyl)-6-(1′-(oxetan-3-yl)-[1,4′-bipiperidin]-4-yl)-1H-benzo[d]imidazole], the IC50 is over 50 µM at human TLR8, 19.5 µM on human TLR7, 1200 nM on human TLR9 and 1220 nM at human TLR9 (setting [1]).
Turning to `Cn1c(-c2ccc(S(C)(=O)=O)cc2)nc2c(F)cc(C3CCN(C4CCN(C5CCOCC5)CC4)CC3)cc21` [Example 280, 4-fluoro-1-methyl-2-(4-(methylsulfonyl)phenyl)-6-(1′-(tetrahydro-2H-pyran-4-yl)-[1,4′-bipiperidin]-4-yl)-1H-benzo[d]imidazole], the IC50 is over 50 µM on human TLR8, 0.7 µM at human TLR7, 73 nM on human TLR9 and 73 nM at human TLR9 (setting [1]).
For the molecule `COCCN1CCC(N2CCC(c3cc(F)c4nc(-c5ccc(S(C)(=O)=O)cc5)n(C)c4c3)CC2)CC1` [Example 281, 4-fluoro-6-(1′-(2-methoxyethyl)-[1,4′-bipiperidin]-4-yl)-1-methyl-2-(4-(methylsulfonyl)phenyl)-1H-benzo[d]imidazole], the IC50 at human TLR8 is over 50 µM; at human TLR7 it was 7 µM; against human TLR9, 120 nM; at human TLR9 (setting [1]), 124 nM.
In the case of `CC(C)CN1C2CCC1CC(N1CCC(c3cc(F)c4nc(-c5ccc(S(C)(=O)=O)cc5)n(C)c4c3)CC1)C2` (stereo not shown) [Example 284, 4-fluoro-6-(1-(8-isobutyl-8-azabicyclo[3.2.1]octan-3-yl)piperidin-4-yl)-1-methyl-2-(4-(methylsulfonyl)phenyl)-1H-benzo[d]imidazole], the IC50 on human TLR8 is over 50 µM; on human TLR7 it was 5.3 µM; at human TLR9 (setting [1]) it was 118 nM; on human TLR9 (setting [2]) it was 120 nM.
For `CC(C)CN1C2CCC1CC(N1CCC(c3cc(F)c4nc(-c5ccc(S(C)(=O)=O)cc5)n(C)c4c3)CC1)C2` (stereo not shown) [Example 285, 4-fluoro-6-(1-(8-isobutyl-8-azabicyclo[3.2.1]octan-3-yl)piperidin-4-yl)-1-methyl-2-(4-(methylsulfonyl)phenyl)-1H-benzo[d]imidazole], the IC50 at human TLR8 is over 50 µM; on human TLR7, 4.8 µM; at human TLR9 (setting [1]), 248 nM; against human TLR9 (setting [2]), 250 nM.
Regarding `Cn1c(-c2ccc(S(C)(=O)=O)cc2)nc2c(F)cc(C3CCN(C4CC5CCC(C4)N5C4COC4)CC3)cc21` (stereo not shown) [Example 286, 4-fluoro-1-methyl-2-(4-(methylsulfonyl)phenyl)-6-(1-(8-(oxetan-3-yl)-8-azabicyclo[3.2.1]octan-3-yl)piperidin-4-yl)-1H-benzo[d]imidazole], the IC50 was over 50 µM at human TLR8, 29 µM on human TLR7, 41 nM at human TLR9 (setting [1]) and 41 nM at human TLR9 (setting [2]).
As to `CC(C)CN1CCCC(N2CCC(c3cc(F)c4nc(-c5ccc(S(C)(=O)=O)cc5)n(C)c4c3)CC2)CC1` (stereo not shown) [Example 296, 4-fluoro-6-(1-(1-isobutylazepan-4-yl)piperidin-4-yl)-1-methyl-2-(4-(methylsulfonyl)phenyl)-1H-benzo[d]imidazole], the IC50 on human TLR8 is over 50 µM; on human TLR7 it was 14.1 µM; on human TLR9 (setting [1]) it was 22 nM; on human TLR9 (setting [2]), 22 nM.
